Measurements taken from patent EP0117060A2, “Methods of screening and amplification in eukaryotic host cells, and nucleotide sequences and expression vectors for use therein” (GENENTECH, INC., priority 1983, dated 1984).

Columns and labels:
Assay type in all cases: cell-based, Chinese hamster
[1] = tested on: CHO-DUX-B11 (dhfr-) cells transfected with pFD11 (pFD11.1); test: Growth inhibition by MTX, 3 day cell count assay, pFD11 transfected clone; conditions: Cricetulus griseus, 72 h; cells from the pFD11 transfected colony (pFD11.1), wild type DHFR plasmid; 3 days, cells counted; read-out: level of MTX which inhibits cell growth by 50 percent over the 3 day assay
Procedure: (§1) A deficiency of the wild type DHFR as a selectable marker in tissue culture systems is the relatively low degree of MTX resistance conferred upon the transfected cells by the transfected wild type enzyme expression plasmid. […] Individual colonies were isolated from pFR400 or pFDll transfected dhfr- cells and propagated in the absence of MTX. Equal amounts of cells from two clones and of CHO-Kl cells were trypsinized and split into 60 mm dishes. Various levels of MTX were added to each dish, the cells incubated for 3 days, and then counted.
(§2) The pFDll transfected cells were clearly less capable of growing in high levels of MTX than were the CHO-K1 (DHFR^+) cells grown under identical conditions. The level of MTX which inhibits cell growth by 50 percent over the 3 day assay was approximately 3 nM for cells derived from the pFDll transfected colony (pFD11.1) and was 20nM for CHO-K1 cells. In contrast to this, the colony (pFR400.1) isolated from the cells transfected with pFR400, was able to grow in extremely high levels of MTX. The 50 percent inhibition level for FR400.1 cells is approximately 3000 nM.

CHO-K1 cells = test: Growth inhibition by MTX, 3 day cell count assay, untransformed wild type cells; conditions: Cricetulus griseus, 72 h, CHO-K1 (DHFR+) cells, 3 days, cells counted, read-out: level of MTX which inhibits cell growth by 50 percent over the 3 day assay
Procedure: as §1, §2

[2] = tested on: CHO-DUX-B11 (dhfr-) cells transfected with pFR400 (pFR400.1); test: Growth inhibition by MTX, 3 day cell count assay, pFR400 transfected clone; conditions: Cricetulus griseus, 72 h; FR400.1 cells (colony from pFR400 transfected dhfr- cells, mutant DHFR 3T6 R400); 3 days, cells counted; read-out: 50 percent inhibition level
Procedure: as §1, §2

CN(Cc1cnc2nc(N)nc(N)c2n1)c1ccc(C(=O)N[C@@H](CCC(=O)O)C(=O)O)cc1 [MTX, methotrexate]
IC50 [1]: ~3 nM
IC50 (CHO-K1 cells): 20 nM
IC50 [2]: ~3000 nM
